Test system: A549 cells
Assay: Inhibition of cell growth in tumor cells (MTT assay)
Type: cell-based
Details: Homo sapiens, 72 h compound exposure
Experimental: Inhibition of cell growth by compounds was measured using MTT assay (Mosmann, T., Journal of Immunological Methods, 1983, 65, 55-63). Tumor cell lines were purchased from ATCC (American Type Culture Collection, Manassas, Va.). All cell lines were maintained in RPMI 1640 (Hyclone) supplemented with 10% fetal bovine serum (FBS, Hyclone), glutamine (2 mM, Hyclone), and antibiotics (penicillin 100 U/mL and streptomycin 50 μg/mL) at 37° C. in a humidified atmosphere of 5% CO2 in air. Taxol (positive control, Sigma) and compounds were dissolved in DMSO (Sigma), and the final concentration of DMSO in the medium was 1%. Tumor cells were plated in 96-well plates at densities from 4000 cells/well of a 96-well plate and allowed to adhere/grow for 24 h. They were then treated with various concentrations of drug for 72 h. 3-(4,5-Dimethylthiazol-2-yl)-2,5-diphenyltetrazolium bromide (MTT, Sigma) was used to determine the number of viable cells at the time of compound addition and the number of cells remaining after 72 h compound exposure. The number of cells remaining after 72 h was compared to the number of viable cells at the time of compound addition by measuring the absorbance at 570 nm, allowing for the calculation of growth inhibition.
All concentrations of compounds were tested in triplicate and controls were averaged over 4 wells. IC50 was calculated by plotting the concentration of compound vs the percentage of inhibition in treated wells using GraphPad Prism 5.

Question: Which IC50 does the source give for `CC1=C(O)C(=O)C=C2C1=CC=C1[C@@]2(C)CC[C@@]2(C)[C@@H]3C[C@](C)(CNC(N)=O)CC[C@]3(C)CC[C@]12C` [1-(((2R,4aS,6aS,12bR,14aS,14bR)-10-hydroxy-2,4-a,6a,9,12b,14a-hexamethyl-11-oxo-1,2,3,4,4a, 5,6,6a,11,12b,13,14,14a,14b-tetradecahydropicen-2-yl)methyl)urea] here?
Answer: The IC50 was 737 nM.

Question: With `CC1=C(O)C(=O)C=C2C1=CC=C1[C@@]2(C)CC[C@@]2(C)[C@@H]3C[C@](C)(CNC(=O)CN(C)C)CC[C@]3(C)CC[C@]12C` [2-(dimethylamino)-N-(((2R,4aS,6aS,12bR,14aS,14bR)-10-hydroxy-2,4a,6a,9,12b,14a-hexamethyl-11-oxo-1,2,3,4,4a,5,6,6a,11,12b,13,14,14a,14b-tetradecahydropicen-2-yl)methyl)acetamide] as the compound, how does the IC50 read?
Answer: The IC50 was 159 nM.

Question: For `CC1=C(O)C(=O)C=C2C1=CC=C1[C@@]2(C)CC[C@@]2(C)[C@@H]3C[C@](C)(CN4CCOCC4)CC[C@]3(C)CC[C@]12C` [(6bS,8aS,11R,12aR,12bS,14aR)-3-hydroxy-4,6b,8a,11,12b,14a-hexamethyl-11-(morpholinomethyl)-7,8,8a,9,10,11,12,12a,12b,13,14,14a-dodecahydropicen-2(6bH)-one], which IC50 is on record?
Answer: Its IC50 is 523 nM.

Question: Which IC50 does the source give for `CC1=C(O)C(=O)C=C2C1=CC=C1[C@@]2(C)CC[C@@]2(C)[C@@H]3C[C@](C)(CN4CCCC4)CC[C@]3(C)CC[C@]12C` [(6bS,8aS,11R,12aR,12bS,14aR)-3-hydroxy-4,6b,8a,11,12b,14a-hexamethyl-11-(pyrrolidin-1-ylmethyl)-7,8,8a,9,10,11,12,12a,12b,13,14,14a-dodecahydropicen-2(6bH)-one] here?
Answer: Its IC50 is 498 nM.

Question: For `CC1=C(O)C(=O)C=C2C1=CC=C1[C@@]2(C)CC[C@@]2(C)[C@@H]3C[C@](C)(CO)CC[C@]3(C)CC[C@]12C` [(6bS,8aS,11R,12aR,12bS,14aR)-3-hydroxy-11-(hydroxymethyl)-4,6b,8a,11,12b,14a-hexamethyl-7,8,8a,9,10,11,12,12a,12b,13,14,14a-dodecahydropicen-2(6bH)-one], which IC50 is on record?
Answer: The IC50 was 624 nM.

Question: With `CC1=C(O)C(=O)C=C2C1=CC=C1[C@@]2(C)CC[C@@]2(C)[C@@H]3C[C@](C)(CN(C)C)CC[C@]3(C)CC[C@]12C` [(6bS,8aS,11R,12aR,12bS,14aR)-11-((dimethylamino)methyl)-3-hydroxy-4,6b,8a,11,12b,14a-hexamethyl-7,8,8a,9,10,11,12,12a,12b,13,14,14a-dodecahydropicen-2(6bH)-one] as the compound, how does the IC50 read?
Answer: The IC50 was 285 nM.

Question: Which IC50 does the source give for `CC1=C(O)C(=O)C=C2C1=CC=C1[C@@]2(C)CC[C@@]2(C)[C@@H]3C[C@](C)(CN)CC[C@]3(C)CC[C@]12C` [(6bS,8aS,11R,12aR,12bS,14aR)-11-(aminomethyl)-3-hydroxy-4,6b,8a,11,12b,14a-hexamethyl-7,8,8a,9,10,11,12,12a,12b,13,14,14a-dodecahydropicen-2(6bH)-one] here?
Answer: The IC50 was 841 nM.

Question: For `COC(=O)OC[C@]1(C)CC[C@]2(C)CC[C@]3(C)C4=CC=C5C(=CC(=O)C(O)=C5C)[C@]4(C)CC[C@@]3(C)[C@@H]2C1` [((2R,4aS,6aS,12bR,14aS,14bR)-10-hydroxy-2,4-a,6a,9,12b,14a-hexamethyl-11-oxo-1,2,3,4,4a,5,6,6a,11,12b,13,14,14a,14b-tetradecahydropicen-2-yl)methyl methyl carbonate], which IC50 is on record?
Answer: The IC50 was 393 nM.

Question: Which IC50 does the source give for `CC1=C(O)C(=O)C=C2C1=CC=C1[C@@]2(C)CC[C@@]2(C)[C@@H]3C[C@](C)(CNC(=O)N4CCN(C)CC4)CC[C@]3(C)CC[C@]12C` [N-(((2R,4aS,6aS,12bR,14aS,14bR)-10-hydroxy-2,4-a,6a,9,12b,14a-hexamethyl-11-oxo-1,2,3,4,4a,5,6,6a,11,12b,13,14,14a,14b-tetradecahydropicen-2-yl)methyl)-4-methylpiperazine-1-carboxamide] here?
Answer: Its IC50 is 246 nM.

Question: For `CC1=C(O)C(=O)C=C2C1=CC=C1[C@@]2(C)CC[C@@]2(C)[C@@H]3C[C@](C)(CNC(=O)N4CCOCC4)CC[C@]3(C)CC[C@]12C` [N-(((2R,4aS,6aS,12bR,14aS,14bR)-10-hydroxy-2,4-a,6a,9,12b,14a-hexamethyl-11-oxo-1,2,3,4,4a,5,6,6a,11,12b,13,14,14a,14b-tetradecahydropicen-2-yl)methyl)morpholine-4-carboxamide], which IC50 is on record?
Answer: Its IC50 is 358 nM.

Test system: nitric oxide production
Assay: not given
Details: Jin et al., J Nat Prod 65: 89 (2002); read-out: IC50, inhibition of nitric oxide production; cited from earlier work

Question: For `N=C(N)NN` [aminoguanidine], which IC50 is on record?
Answer: Its IC50 is 16000 nM.

Source: patent US8691977B2, “Certain chemical entities, compositions, and methods” (Neupharma, Inc., priority 2010, dated 2014)
